Measurements: patent US20050209193A1, “Method for enhanced photodynamic therapy” (priority 2003, published 2005)

Legend:
skin of the subject = test: Determination of effective treatment time for PDT/IPL/RF rejuvenation therapy after ALA application; type: in vivo, human
Source text: ALA, was applied to the skin of the subject. The light used for PDT was IPL comprising a variety of wavelengths, with an intensity of 26 J. PDT/IPL/RF was applied at various time points following ALA application. […] The increase in efficacy leveled off at hours 5 and 6.
A 4-hour treatment with ALA was required for significant efficacy of PDT/IPL/RF. A time course of this length may be accompanied by increases in erythema and other side effects. In order to minimize side effects, it was determined that a 1-hour treatment was preferred. The 1-hour treatment requires repeated administrations for maximum efficacy, but prevents skin breakdown. With its potential for increased side effects, the 4-hour treatment should be reserved for severe premalignant cases only.

[1] = system: skin of patients (keratoses, sun damage, rosacea, melasma, wrinkles); test: Treatment of patients with PDT/IPL/RF after ALA application; type: in vivo, human
Description: Four patients were treated with a combination of PDT, IPL, and RF. ALA was applied to the patients at time 0.
Patient 1 received one PDT/RF/IPL peel treatment at full energy (26 J) 4 hours after application of ALA.
Patients 2, 3, and 4 received four sessions of PDT/RF/IPL photofacial treatments at full energy (26 J) 1 hour after application of ALA.

[2] = Patient 1, one PDT/RF/IPL peel treatment at 26 J, 4 hours after ALA

NCC(=O)CCC(=O)O [ALA, 5-aminolevulinic acid]
efficacy of PDT/IPL/RF versus standard IPL/RF alone (skin of the subject; PDT/IPL/RF applied 15 minutes after ALA application, IPL 26 J, human test subject): no more efficacious than standard IPL/RF alone | efficacy of PDT/IPL/RF over RF alone (skin of the subject; PDT/IPL/RF applied 30 minutes after ALA application, IPL 26 J): minimal increase in efficacy | efficacy of PDT/IPL/RF over RF alone (skin of the subject; PDT/IPL/RF applied 45 minutes after ALA application, IPL 26 J): minimal increase in efficacy | efficacy of PDT/IPL/RF (skin of the subject; PDT/IPL/RF applied 1 hour after ALA application, IPL 26 J): noticeable increase in efficacy | efficacy of PDT/IPL/RF (skin of the subject; PDT/IPL/RF applied 2 hours after ALA application, IPL 26 J): noticeable increase in efficacy | efficacy of PDT/IPL/RF (skin of the subject; PDT/IPL/RF applied 4 hours after ALA application, IPL 26 J): largest increase of any point in time | efficacy of PDT/IPL/RF (skin of the subject; PDT/IPL/RF applied 5 hours after ALA application, IPL 26 J): leveled off | efficacy of PDT/IPL/RF (skin of the subject; PDT/IPL/RF applied 6 hours after ALA application, IPL 26 J): leveled off | ALA treatment time required for significant efficacy of PDT/IPL/RF (skin of the subject; human test subject): 4 h | effect on lentigines ([1]; 4-hour treatment, Patient 1): selective destruction of lentigines | effect on atypia and keratoses [1, 2]: significant darkening and slough of atypia and keratoses | effect on wrinkles [1, 2]: diminution of wrinkles | skin rejuvenation [1, 2]: generalized skin rejuvenation | effect on sun damage, rosacea, and melasma ([1]; Patients 2, 3 and 4, four sessions PDT/RF/IPL photofacial at 26 J, 1 hour after ALA): decrease in sun damage, rosacea, and melasma
